For orientation: melting point means the temperature of the solid-liquid transition.

Consider `CC(C)(C)N1CCC2(CCN(CCC3CCCc4sccc43)CC2)C1=O.O=C(O)C(=O)O` (stereo not shown) [Example 81, 2-tert-butyl-8-[2-(4,5,6,7-tetrahydrobenzo[b]thiophen-4-yl)-ethyl]-2,8-diazaspiro[4.5]decan-1-one oxalate], for which the melting point lay in the range of 172 to 173 °C.

For the molecule `Fc1ccccc1C1CCN(CCC2CCCc3sccc32)CC1.O=C(O)C(=O)O` (stereo not shown) [Example 54, 4-(2-fluorophenyl)-1-(2-(4,5,6,7-tetrahydrobenzo[b]thiophen-4-yl)ethyl)piperidine oxalate], the melting point was 208 to 209 °C.

Molecule `C(/CN1CCCCC1)=C1/CCCc2sccc21.O=C(O)C(=O)O` [Example 10, (E)-1-(2-(6,7-dihydrobenzo[b]thien-4(5H)-ylidene)ethyl)piperidine oxalate] returned a melting point of 148 to 150 °C.

Turning to `CN1CCC2(CCN(CCC3CCCc4sccc43)CC2)C1=O.O=C(O)C(=O)O` (stereo not shown) [Example 65, 2-Methyl-8-[2-(4,5,6,7-tetrahydrobenzo[b]thiophen-4-yl)-ethyl]-2,8-diazaspiro[4.5]decan-1-one oxalate], the melting point fell in the range of 140 to 142 °C.

In turn, `CN(C/C=C1\CCCc2sccc21)CCc1ccccc1.O=C(O)C(=O)O` [Example 8, (E)-N-(2-(6,7-dihydrobenzo[b]thien-4(5H)-ylidene)ethyl)-N-methyl-2-phenylethanamine oxalate] displayed a melting point of 129 to 130 °C.

`O=C(O)C(=O)O.c1ccc2c(c1)CN(CCC1CCCc3sccc31)C2` (stereo not shown) [Example 22, 2-(2-(4,5,6,7-tetrahydrobenzo[b]thien-4-yl)ethyl)isoindoline oxalate] had a melting point of 203 to 205 °C.

The molecule `C(/CN1CCOCC1)=C1/CCCc2sccc21.O=C(O)C(=O)O` [Example 14, (E)-4-(2-(6,7-dihydrobenzo[b]thien-4(5H)-ylidene)ethyl)morpholine oxalate] registered a melting point of 171 to 174 °C.

As for `O=C(O)C(=O)O.O=C1N(c2ccc(C(F)(F)F)cc2)CCC12CCN(CCC1CCCc3sccc31)CC2` (stereo not shown) [Example 89, 2-(4-trifluoromethylphenyl)-8-[2-(4,5,6,7-tetrahydrobenzo[b]thiophen-4-yl)-ethyl]-2,8-diazaspiro[4.5]decan-1-one oxalate], the melting point fell in the range of 166 to 168 °C.

`O=C(O)C(=O)O.c1ccc2[nH]c(C3CCN(CCC4CCCc5sccc54)CC3)nc2c1` (stereo not shown) [Example 59, 2-(1-(2-(4,5,6,7-tetrahydrobenzo[b]thiophen-4-yl)ethyl)piperidin-4-yl)-1H-benzo[d]imidazole oxalate] yielded a melting point of 223 to 225 °C.

In turn, `COc1ccc2c(c1)CN(CCC1CCCc3sccc31)CC2.O=C(O)C(=O)O` (stereo not shown) [Example 75, 7-methoxy-2-(2-(4,5,6,7-tetrahydrobenzo[b]thiophen-4-yl)ethyl)-1,2,3,4-tetrahydroisoquinoline oxalate] showed a melting point of 200 to 201 °C.

For the molecule `O=C(O)C(=O)O.c1ccc2c(C3CCN(CCC4CCCc5sccc54)CC3)cccc2c1` (stereo not shown) [Example 32, 4-(naphthalen-1-yl)-1-(2-(4,5,6,7-tetrahydrobenzo[b]thiophen-4-yl)ethyl)piperidine oxalate], the melting point was 197 to 198 °C.

Regarding `O=C(O)C(=O)O.O=C1N(c2ccc(F)cc2)CCC12CCN(CCC1CCCc3sccc31)CC2` (stereo not shown) [Example 95, 2-(4-Fluorophenyl)-8-[2-(4,5,6,7-tetrahydrobenzo[b]thiophen-4-yl)-ethyl]-2,8-diazaspiro[4.5]decan-1-one oxalate], the melting point was 195 to 199 °C.

Molecule `Clc1cccc(C2CCN(CCC3CCCc4sccc43)CC2)c1.O=C(O)C(=O)O` (stereo not shown) [Example 42, 4-(3-chlorophenyl)-1-(2-(4,5,6,7-tetrahydrobenzo[b]thiophen-4-yl)ethyl)piperidine oxalate] yielded a melting point of 185 to 186 °C.

`Clc1cc(Cl)c2c(c1)CN(CCC1CCCc3sccc31)CC2.O=C(O)C(=O)O` (stereo not shown) [Example 77, 5,7-dichloro-2-(2-(4,5,6,7-tetrahydrobenzo[b]thiophen-4-yl)ethyl)-1,2,3,4-tetrahydroisoquinoline oxalate] displayed a melting point of 182 to 184 °C.

The molecule `Fc1ccc(C2CCN(CCC3CCCc4sccc43)CC2)cc1.O=C(O)C(=O)O` (stereo not shown) [Example 46, 4-(4-fluorophenyl)-1-(2-(4,5,6,7-tetrahydrobenzo[b]thiophen-4-yl)ethyl)piperidine oxalate] returned a melting point of 179 to 181 °C.

Regarding `O=C(O)C(=O)O.c1ccc2c(c1)COC21CCN(CCC2CCCc3sccc32)CC1` (stereo not shown), the melting point lay within 172 to 176 °C.

On to `CN(C/C=C1\CCCc2sccc21)Cc1ccccc1.O=C(O)C(=O)O` [Example 4, (E)-N-benzyl-2-(6,7-dihydrobenzo[b]thien-4(5H)-ylidene)-N-methylethanamine oxalate], for which the melting point was 139 to 141 °C.

The molecule `CN(CCC1CCCc2sccc21)Cc1ccccc1.O=C(O)C(=O)O` (stereo not shown) [Example 24, N-benzyl-N-methyl-2-(4,5,6,7-tetrahydrobenzo[b]thien-4-yl)ethanamine oxalate] registered a melting point of 168 to 171 °C.

`CC1CCN(C/C=C2\CCCc3sccc32)CC1.O=C(O)C(=O)O` [Example 12, (E)-1-(2-(6,7-dihydrobenzo[b]thien-4(5H)-ylidene)ethyl)-4-methylpiperidine oxalate] returned a melting point of 139 to 141 °C.

In turn, `C1=CC2(CCN(CCC3CCCc4sccc43)CC2)c2ccccc21.O=C(O)C(=O)O` (stereo not shown) returned a melting point of 198 to 199 °C.

`COc1ccc(N2CCC3(CCN(CCC4CCCc5sccc54)CC3)C2=O)cc1.O=C(O)C(=O)O` (stereo not shown) [Example 85, 2-(4-Methoxyphenyl)-8-[2-(4,5,6,7-tetrahydrobenzo[b]thiophen-4-yl)-ethyl]-2,8diazaspiro[4.5]decan-1-one oxalate] returned a melting point of 205 to 206 °C.

In turn, `O=C(O)C(=O)O.O=C1N(Cc2ccccc2)CCC12CCN(CCC1CCCc3sccc31)CC2` (stereo not shown) [Example 83, 2-benzyl-8-[2-(4,5,6,7-tetrahydrobenzo[b]thiophen-4-yl)-ethyl]-2,8-diazaspiro[4.5]decan-1-one oxalate] returned a melting point of 170 to 171 °C.

Consider `FC(F)(F)c1ccc(C2CCN(CCC3CCCc4sccc43)CC2)cc1.O=C(O)C(=O)O` (stereo not shown) [Example 26, 1-(2-(4,5,6,7-tetrahydrobenzo[b]thiophen-4-yl)ethyl)-4-(4-(trifluoromethyl)phenyl)piperidine oxalate], for which the melting point is 180 to 182 °C.

Consider `COc1ccc(C2CCN(CCC3CCCc4sccc43)CC2)cc1.O=C(O)C(=O)O` (stereo not shown) [Example 63, 4-(4-methoxyphenyl)-1-(2-(4,5,6,7-tetrahydrobenzo[b]thiophen-4-yl)ethyl)piperidine oxalate], for which the melting point lay within 175 to 176 °C.

Consider `N#Cc1ccc2c(c1)CN(CCC1CCCc3sccc31)CC2.O=C(O)C(=O)O` (stereo not shown) [Example 93, 2-(2-(4,5,6,7-tetrahydrobenzo[b]thiophen-4-yl)ethyl)-1,2,3,4-tetrahydroisoquinoline-7-carbonitrile oxalate], for which the melting point fell in the range of 180 to 181 °C.

Regarding `COc1ccccc1C1CCN(CCC2CCCc3sccc32)CC1.O=C(O)C(=O)O` (stereo not shown) [Example 36, 4-(2-methoxyphenyl)-1-(2-(4,5,6,7-tetrahydrobenzo[b]thiophen-4-yl)ethyl)piperidine oxalate], the melting point fell in the range of 160 to 162 °C.

As to `Cc1nc2ccccc2n1C1CCN(CCC2CCCc3sccc32)CC1.O=C(O)C(=O)O` (stereo not shown) [Example 61, 2-methyl-1-(1-(2-(4,5,6,7-tetrahydrobenzo[b]thiophen-4-yl)ethyl)piperidin-4-yl)-1H-benzo[d]imidazole oxalate], the melting point lay in the range of 155 to 157 °C.

Molecule `O=C(O)C(=O)O.O=C1N(c2ccc(Cl)cc2)CCC12CCN(CCC1CCCc3sccc31)CC2` (stereo not shown) [Example 69, 2-(4-Chlorophenyl)-8-[2-(4,5,6,7-tetrahydrobenzo[b]thiophen-4-yl)-ethyl]-2,8-diazaspiro[4.5]decan-1-one oxalate] registered a melting point of 218 to 220 °C.

The molecule `Fc1cccc(C2CCN(CCC3CCCc4sccc43)CC2)c1.O=C(O)C(=O)O` (stereo not shown) [Example 30, 4-(3-fluorophenyl)-1-(2-(4,5,6,7-tetrahydrobenzo[b]thiophen-4-yl)ethyl)piperidine oxalate] displayed a melting point of 203 to 204 °C.

In the case of `O=C(O)C(=O)O.O=C1OC2(CCN(CCC3CCCc4sccc43)CC2)c2ccccc21` (stereo not shown), the melting point is 186 to 189 °C.

The molecule `O=C(O)C(=O)O.c1ccc2oc(C3CCN(CCC4CCCc5sccc54)CC3)cc2c1` (stereo not shown) [Example 52, 4-(benzofuran-2-yl)-1-(2-(4,5,6,7-tetrahydrobenzo[b]thiophen-4-yl)ethyl)piperidine oxalate] registered a melting point of 207 to 208 °C.

In turn, `O=C(O)C(=O)O.c1ccc2cc(C3CCN(CCC4CCCc5sccc54)CC3)ccc2c1` (stereo not shown) [Example 50, 4-(naphthalen-2-yl)-1-(2-(4,5,6,7-tetrahydrobenzo[b]thiophen-4-yl)ethyl)piperidine oxalate] gave a melting point of 203 to 205 °C.

As to `FC(F)(F)c1cc(C2CCN(CCC3CCCc4sccc43)CC2)cc(C(F)(F)F)c1.O=C(O)C(=O)O` (stereo not shown) [Example 48, 4-(3,5-bis(trifluoromethyl)phenyl)-1-(2-(4,5,6,7-tetrahydrobenzo[b]thiophen-4-yl)ethyl)piperidine oxalate], the melting point was in the range of 205 to 206 °C.

As to `O=C(O)C(=O)O.c1ccc2c(c1)ccn2C1CCN(CCC2CCCc3sccc32)CC1` (stereo not shown) [Example 79, 1-(1-(2-(4,5,6,7-tetrahydrobenzo[b]thiophen-4-yl)ethyl)piperidin-4-yl)-1H-indole oxalate], the melting point lay within 162 to 164 °C.

On to `O=C(O)C(=O)O.OC1(c2ccc(Cl)cc2)CCN(CCC2CCCc3sccc32)CC1` (stereo not shown), for which the melting point is 184 to 185 °C.

In turn, `Cc1ccccc1C1CCN(CCC2CCCc3sccc32)CC1.O=C(O)C(=O)O` (stereo not shown) [Example 28, 1-(2-(4,5,6,7-tetrahydrobenzo[b]thiophen-4-yl)ethyl)-4-o-tolylpiperidine oxalate] registered a melting point of 188 to 190 °C.

For the molecule `COc1cccc(C2CCN(CCC3CCCc4sccc43)CC2)c1.O=C(O)C(=O)O` (stereo not shown) [Example 44, 4-(3-methoxyphenyl)-1-(2-(4,5,6,7-tetrahydrobenzo[b]thiophen-4-yl)ethyl)piperidine oxalate], the melting point was in the range of 157 to 159 °C.
